{
  "source": "patent US8153809B2",
  "about": "“Dihydropyridone ureas as P2X7 modulators” (Roche Palo Alto LLC, priority 2008, dated 2012)",
  "data": [
    {"target": "T1, P2X7 (UniProt Q99572)", "T1 sequence (Q99572 1-595)": "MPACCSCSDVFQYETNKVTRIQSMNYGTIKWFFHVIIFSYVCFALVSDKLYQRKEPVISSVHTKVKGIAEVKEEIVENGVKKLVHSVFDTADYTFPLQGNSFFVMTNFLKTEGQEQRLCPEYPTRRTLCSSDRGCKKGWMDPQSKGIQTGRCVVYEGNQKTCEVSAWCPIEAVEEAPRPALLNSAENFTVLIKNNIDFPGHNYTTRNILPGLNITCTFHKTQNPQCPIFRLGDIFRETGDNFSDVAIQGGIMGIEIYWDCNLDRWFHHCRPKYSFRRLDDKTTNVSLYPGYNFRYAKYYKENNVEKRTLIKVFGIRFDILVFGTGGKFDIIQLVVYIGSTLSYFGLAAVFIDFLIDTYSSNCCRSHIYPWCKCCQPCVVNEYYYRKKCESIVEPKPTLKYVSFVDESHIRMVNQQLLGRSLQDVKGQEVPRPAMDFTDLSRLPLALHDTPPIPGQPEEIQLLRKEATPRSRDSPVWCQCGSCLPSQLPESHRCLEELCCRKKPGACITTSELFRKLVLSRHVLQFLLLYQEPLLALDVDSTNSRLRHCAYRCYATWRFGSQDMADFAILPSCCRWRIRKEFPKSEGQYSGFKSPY", "assay": "pIC50 values for P2X7 (Table 1)", "type": "cell-based", "how_it_was_run": "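Fluo-3-loaded 1321N1 cells expressing human P2X7 or HEK293 cells expressing rat P2X7, preincubated 20 min at room temperature with antagonist in HBSS/Hepes/probenecid buffer with 2 mM CaCl2. BzATP agonist at 100 μM final (human) or 5 μM final (rat); fluorescence read 5 min, peak normalized to 5 μM ionomycin response.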", "values": [
      {"smiles": "COc1cccc(NC(=O)N2C=CC(=O)CC2c2ccc(F)cc2)c1C", "note": "(stereo not shown) [Compound 109, 2-(4-Fluoro-phenyl)-4-oxo-3,4-dihydro-2H-pyridine-1-carboxylic acid (3-methoxy-2-methyl-phenyl)-amide]", "pIC50": 8.433},
      {"smiles": "Cn1cc2cc(NC(=O)N3C=CC(=O)C[C@H]3c3ccc(F)cc3)ccc2n1", "note": "[Compound 148, (S)-2-(4-Fluoro-phenyl)-4-oxo-3,4-dihydro-2H-pyridine-1-carboxylic acid (2-methyl-2H-indazol-5-yl)-amide]", "pIC50": 6.87},
      {"smiles": "O=C1C=CN(C(=O)Nc2ccc3ncccc3c2Br)[C@H](c2ccc(F)cc2)C1", "note": "[Compound 106, (S)-2-(4-Fluoro-phenyl)-4-oxo-3,4-dihydro-2H-pyridine-1-carboxylic acid (5-bromo-quinolin-6-yl)-amide]", "pIC50": 7.785},
      {"smiles": "COc1ccc(NC(=O)N2C=CC(=O)C[C@H]2c2ccc(F)cc2)cc1OC", "note": "[Compound 34, (S)-2-(4-Fluoro-phenyl)-4-oxo-3,4-dihydro-2H-pyridine-1-carboxylic acid (3,4-dimethoxy-phenyl)-amide]", "pIC50": 7.2425},
      {"smiles": "O=C1C=CN(C(=O)NC23CC4CC(CC(C4)C2)C3)C(c2ccc(F)cc2)C1", "note": "(stereo not shown) [Compound 64, 2-(4-Fluoro-phenyl)-4-oxo-3,4-dihydro-2H-pyridine-1-carboxylic acid adamantan-1-ylamide]", "pIC50": 5.98},
      {"smiles": "O=C1C=CN(C(=O)Nc2ccc3ncsc3c2)C(c2ccc(F)cc2)C1", "note": "(stereo not shown) [Compound 117, 2-(4-Fluoro-phenyl)-4-oxo-3,4-dihydro-2H-pyridine-1-carboxylic acid benzothiazol-6-ylamide]", "pIC50": 6.31},
      {"smiles": "COC(=O)c1cccc(NC(=O)N2C=CC(=O)C[C@@H]2c2ccc(F)cc2)c1C", "note": "[Compound 94, 3-{[(R)-2-(4-Fluoro-phenyl)-4-oxo-3,4-dihydro-2H-pyridine-1-carbonyl]-amino}-2-methyl-benzoic acid methyl ester]", "pIC50": 6.13},
      {"smiles": "COC(=O)c1cc(NC(=O)N2C=CC(=O)C[C@H]2c2ccc(F)cc2)c(Br)cc1Cl", "note": "[Compound 27, 4-Bromo-2-chloro-5-{[(S)-2-(4-fluoro-phenyl)-4-oxo-3,4-dihydro-2H-pyridine-1-carbonyl]-amino}-benzoic acid methyl ester]", "pIC50": 7.26},
      {"smiles": "O=C1C=CN(C(=O)Nc2cc(Cl)c(Cl)cc2Br)[C@H](c2ccc(F)cc2)C1", "note": "[Compound 9, (S)-2-(4-Fluoro-phenyl)-4-oxo-3,4-dihydro-2H-pyridine-1-carboxylic acid (2-bromo-4,5-dichloro-phenyl)-amide]", "pIC50": 6.11},
      {"smiles": "O=C1C=CN(C(=O)Nc2ccc3cc[nH]c3c2)C(c2ccc(F)cc2)C1", "note": "(stereo not shown) [Compound 90, 2-(4-Fluoro-phenyl)-4-oxo-3,4-dihydro-2H-pyridine-1-carboxylic acid (1H-indol-6-yl)-amide]", "pIC50": 6.615},
      {"smiles": "COc1cc(NC(=O)N2C=CC(=O)C[C@H]2c2ccc(F)cc2)ccc1Cl", "note": "[Compound 71, (S)-2-(4-Fluoro-phenyl)-4-oxo-3,4-dihydro-2H-pyridine-1-carboxylic acid (4-chloro-3-methoxy-phenyl)-amide]", "pIC50": 6.245},
      {"smiles": "COc1cc(NC(=O)N2C=CC(=O)CC2c2ccc(F)cc2)c(N(C)C)cc1OC", "note": "(stereo not shown) [Compound 115, 2-(4-Fluoro-phenyl)-4-oxo-3,4-dihydro-2H-pyridine-1-carboxylic acid (2-dimethylamino-4,5-dimethoxy-phenyl)-amide]", "pIC50": 5.915},
      {"smiles": "COc1cc(Br)c(CNC(=O)N2C=CC(=O)CC2c2ccc(F)cc2)cc1OC", "note": "(stereo not shown) [Compound 75, 2-(4-Fluoro-phenyl)-4-oxo-3,4-dihydro-2H-pyridine-1-carboxylic acid 2-bromo-4,5-dimethoxy-benzylamide]", "pIC50": 5.075},
      {"smiles": "COCCOc1cc(NC(=O)N2C=CC(=O)C[C@H]2c2ccc(F)cc2)c(Br)cc1Cl", "note": "[Compound 33, (S)-2-(4-Fluoro-phenyl)-4-oxo-3,4-dihydro-2H-pyridine-1-carboxylic acid [2-bromo-4-chloro-5-(2-methoxy-ethoxy)-phenyl]-amide]", "pIC50": 7.27},
      {"smiles": "Cc1cc(C)c(Br)c(NC(=O)N2C=CC(=O)C[C@H]2c2ccc(F)cc2)c1", "note": "[Compound 99, (S)-2-(4-Fluoro-phenyl)-4-oxo-3,4-dihydro-2H-pyridine-1-carboxylic acid (2-bromo-3,5-dimethyl-phenyl)-amide]", "pIC50": 7.98},
      {"smiles": "CN1C(=O)CCc2cc(Br)c(NC(=O)N3C=CC(=O)C[C@H]3c3ccc(F)cc3)cc21", "note": "[Compound 128, (S)-2-(4-Fluoro-phenyl)-4-oxo-3,4-dihydro-2H-pyridine-1-carboxylic acid (6-bromo-1-methyl-2-oxo-1,2,3,4-tetrahydro-quinolin-7-yl)-amide]", "pIC50": 7.595},
      {"smiles": "Cc1cc2cc(NC(=O)N3C=CC(=O)CC3c3ccc(F)cc3)ccc2o1", "note": "(stereo not shown) [Compound 91, 2-(4-Fluoro-phenyl)-4-oxo-3,4-dihydro-2H-pyridine-1-carboxylic acid (2-methyl-benzofuran-5-yl)-amide]", "pIC50": 6.315},
      {"smiles": "CS(=O)(=O)CCCOc1cc(NC(=O)N2C=CC(=O)C[C@H]2c2ccc(F)cc2)c(Br)cc1Cl", "note": "[Compound 54, (S)-2-(4-Fluoro-phenyl)-4-oxo-3,4-dihydro-2H-pyridine-1-carboxylic acid [2-bromo-4-chloro-5-(3-methanesulfonyl-propoxy)-phenyl]-amide]", "pIC50": 6.38},
      {"smiles": "Cc1cc2ncccc2cc1NC(=O)N1C=CC(=O)C[C@H]1c1ccc(F)cc1", "note": "[Compound 74, (S)-2-(4-Fluoro-phenyl)-4-oxo-3,4-dihydro-2H-pyridine-1-carboxylic acid (7-methyl-quinolin-6-yl)-amide]", "pIC50": 7.35},
      {"smiles": "COc1ccc(Br)c(NC(=O)N2C=CC(=O)C[C@H]2c2ccc(F)cc2)n1", "note": "[Compound 21, (S)-2-(4-Fluoro-phenyl)-4-oxo-3,4-dihydro-2H-pyridine-1-carboxylic acid (3-bromo-6-methoxy-pyridin-2-yl)-amide]", "pIC50": 6.32},
      {"smiles": "CCc1cc2ncccc2cc1NC(=O)N1C=CC(=O)C[C@H]1c1ccc(F)cc1", "note": "[Compound 153, (S)-2-(4-Fluoro-phenyl)-4-oxo-3,4-dihydro-2H-pyridine-1-carboxylic acid (7-ethyl-quinolin-6-yl)-amide]", "pIC50": 7.85},
      {"smiles": "Cc1n[nH]c2cc(NC(=O)N3C=CC(=O)C[C@H]3c3ccc(F)cc3)c(Br)cc12", "note": "[Compound 36, (S)-2-(4-Fluoro-phenyl)-4-oxo-3,4-dihydro-2H-pyridine-1-carboxylic acid (5-bromo-3-methyl-1H-indazol-6-yl)-amide]", "pIC50": 6.905},
      {"smiles": "COc1ccc(Br)c(NC(=O)N2C=CC(=O)C[C@H]2c2ccc(F)cc2)c1", "note": "[Compound 96, (S)-2-(4-Fluoro-phenyl)-4-oxo-3,4-dihydro-2H-pyridine-1-carboxylic acid (2-bromo-5-methoxy-phenyl)-amide]", "pIC50": 7.875},
      {"smiles": "O=C(O)COc1cc(NC(=O)N2C=CC(=O)C[C@H]2c2ccc(F)cc2)c(Br)cc1Cl", "note": "[Compound 32, (4-Bromo-2-chloro-5-{[(S)-2-(4-fluoro-phenyl)-4-oxo-3,4-dihydro-2H-pyridine-1-carbonyl]-amino}-phenoxy)-acetic acid]", "pIC50": 5.365},
      {"smiles": "COc1ccc(NC(=O)N2C=CC(=O)C[C@H]2c2ccc(F)cc2)c(C)c1", "note": "[Compound 100, (S)-2-(4-Fluoro-phenyl)-4-oxo-3,4-dihydro-2H-pyridine-1-carboxylic acid (4-methoxy-2-methyl-phenyl)-amide]", "pIC50": 7.05},
      {"smiles": "C[C@H](O)c1cc(NC(=O)N2C=CC(=O)C[C@H]2c2ccc(F)cc2)c(Br)cc1Cl", "note": "[Compound 83, (S)-2-(4-Fluoro-phenyl)-4-oxo-3,4-dihydro-2H-pyridine-1-carboxylic acid [2-bromo-4-chloro-5-((S)-1-hydroxy-ethyl)-phenyl]-amide]", "pIC50": 7.56},
      {"smiles": "COc1cc(NC(=O)N2C=CC(=O)C[C@H]2c2ccc(F)cc2)ccc1F", "note": "[Compound 76, (S)-2-(4-Fluoro-phenyl)-4-oxo-3,4-dihydro-2H-pyridine-1-carboxylic acid (4-fluoro-3-methoxy-phenyl)-amide]", "pIC50": 6.76},
      {"smiles": "COc1cc(NC(=O)N2C=CC(=O)C[C@H]2c2ccc(F)cc2)c(F)cc1Cl", "note": "[Compound 35, (S)-2-(4-Fluoro-phenyl)-4-oxo-3,4-dihydro-2H-pyridine-1-carboxylic acid (4-chloro-2-fluoro-5-methoxy-phenyl)-amide]", "pIC50": 7.195},
      {"smiles": "O=C1C=CN(C(=O)Nc2cc3c(cc2Br)OC(F)(F)O3)[C@H](c2ccc(F)cc2)C1", "note": "[Compound 61, (S)-2-(4-Fluoro-phenyl)-4-oxo-3,4-dihydro-2H-pyridine-1-carboxylic acid (6-bromo-2,2-difluoro-benzo[1,3]dioxol-5-yl)-amide]", "pIC50": 6.365},
      {"smiles": "Cc1cc(Cl)c(CO)cc1NC(=O)N1C=CC(=O)C[C@H]1c1ccc(F)cc1", "note": "[Compound 118, (S)-2-(4-Fluoro-phenyl)-4-oxo-3,4-dihydro-2H-pyridine-1-carboxylic acid (4-chloro-5-hydroxymethyl-2-methyl-phenyl)-amide]", "pIC50": 7.735},
      {"smiles": "COc1ccc(NC(=O)N2C=CC(=O)C[C@H]2c2cccc(F)c2)cc1OC", "note": "[Compound 88, (S)-2-(3-Fluoro-phenyl)-4-oxo-3,4-dihydro-2H-pyridine-1-carboxylic acid (3,4-dimethoxy-phenyl)-amide]", "pIC50": 6.32}
    ]}
  ]
}
